Reference: patent US12310975B2, “Modulators of BCL6 proteolysis and associated methods of use” (Arvinas Operations, Inc., priority 2019, dated 2025)

biological target: BCL6 (Homo sapiens (Human), UniProt P41182); experiment: Immunofluorescence high content imaging of BCL6 degradation in T47D cells; format: cell-based; settings: T47D cells
Outline: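 T47D cells were treated 3 days at 37 °C with an 11-point 3-fold dilution series (top 0.1 or 1 μM), then fixed, permeabilized and immunostained for BCL6 with Alexa-488 secondary, CellMask and Hoechst. BCL6 signal was imaged at 10×, 4 fields/well, with top-hat smoothing.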

Row | Compound | Dmax [%] | IC50 [nM]
1 | CNC(=O)COc1cc2cc(Nc3nc(N4C[C@@H](COc5ccc6c(c5)C(=O)N(C5CCC(=O)NC5=O)C6=O)O[C@@H](C)C4)ncc3Cl)ccc2n(C(C)C)c1=O (stereo partly drawn) [compound 383, 2-{[6-({5-chloro-2-[(25,6S)-2-({[2-(2,6-dioxopiperidin-3-yl)-1,3-dioxo-2,3-dihydro-1H-isoindol-5-yl]oxy}methyl)-6-methylmorpholin-4-yl]pyrimidin-4-yl}amino)-2-oxo-1-(propan-2-yl)-1,2-dihydroquinolin-3-yl]oxy}-N-methylacetamide] | 50 to 70 | 10 to 50
2 | CNC(=O)COc1cc2cc(Nc3nc(N4CCC5(CC4)CN(CC4CCN(c6ccc7c(c6)C(=O)N(C6CCC(=O)NC6=O)C7=O)CC4)C5)ncc3Cl)ccc2n(C(C)C)c1=O (centres unmarked) [compound 384] | ≥ 70 | < 10
3 | CNC(=O)COc1cc2cc(Nc3nc(N4CCC5(CC4)CN(CC4CCN(c6cccc7c6C(=O)N(C6CCC(=O)NC6=O)C7=O)CC4)C5)ncc3Cl)ccc2n(C(C)C)c1=O (centres unmarked) [compound 385, 2-{[6-({5-chloro-2-[2-({1-[2-(2,6-dioxopiperidin-3-yl)-1,3-dioxo-2,3-dihydro-1H-isoindol-4-yl]piperidin-4-yl}methyl)-2,7-diazaspiro[3.5]nonan-7-yl]pyrimidin-4-yl}amino)-2-oxo-1-(propan-2-yl)-1,2-dihydroquinolin-3-yl]oxy}-N-methylacetamide] | 50 to 70 | < 10
4 | CNC(=O)COc1cc2cc(Nc3nc(N4CCC(CN5CCC(c6cccc7c6C(=O)N(C6CCC(=O)NC6=O)C7=O)CC5)CC4)ncc3Cl)ccc2n(C(C)C)c1=O (centres unmarked) [compound 386, 2-{[6-({5-chloro-2-[4-({4-[2-(2,6-dioxopiperidin-3-yl)-1,3-dioxo-2,3-dihydro-1H-isoindol-4-yl]piperidin-1-yl}methyl)piperidin-1-yl]pyrimidin-4-yl}amino)-2-oxo-1-(propan-2-yl)-1,2-dihydroquinolin-3-yl]oxy}-N-methylacetamide] | 50 to 70 | < 10
5 | CNC(=O)COc1cc2cc(Nc3nc(N4C[C@@H](C)N(CC5CCN(c6cccc7c6C(=O)N(C6CCC(=O)NC6=O)C7=O)CC5)[C@@H](C)C4)ncc3Cl)ccc2n(C(C)C)c1=O (stereo partly drawn) [compound 387, 2-{[6-({5-chloro-2-[(3R,5S)-4-({1-[2-(2,6-dioxopiperidin-3-yl)-1,3-dioxo-2,3-dihydro-1H-isoindol-4-yl]piperidin-4-yl}methyl)-3,5-dimethylpiperazin-1-yl]pyrimidin-4-yl}amino)-2-oxo-1-(propan-2-yl)-1,2-dihydroquinolin-3-yl]oxy}-N-methylacetamide] | 50 to 70 | < 10
6 | CNC(=O)COc1cc2cc(Nc3nc(N4CCN(CC5CCN(c6ccc7c(c6)CN(C6CCC(=O)NC6=O)C7=O)CC5)CC4)ncc3Cl)ccc2n(C(C)C)c1=O (centres unmarked) [compound 388, 2-{[6-({5-chloro-2-[4-({1-[2-(2,6-dioxopiperidin-3-yl)-1-oxo-2,3-dihydro-1H-isoindol-5-yl]piperidin-4-yl}methyl)piperazin-1-yl]pyrimidin-4-yl}amino)-2-oxo-1-(propan-2-yl)-1,2-dihydroquinolin-3-yl]oxy}-N-methylacetamide] | 50 to 70 | < 10
7 | CC[C@@H]1CN(c2ncc(Cl)c(Nc3ccc4c(c3)cc(OCC(=O)NC)c(=O)n4C(C)C)n2)C[C@@H](COc2ccc3c(c2)C(=O)N(C2CCC(=O)NC2=O)C3=O)O1 (stereo partly drawn) [compound 389, 2-{[6-({5-chloro-2-[(2S,6R)-2-({[2-(2,6-dioxopiperidin-3-yl)-1,3-dioxo-2,3-dihydro-1H-isoindol-5-yl]oxy}methyl)-6-ethylmorpholin-4-yl]pyrimidin-4-yl}amino)-2-oxo-1-(propan-2-yl)-1,2-dihydroquinolin-3-yl]oxy}-N-methylacetamide] | < 50 | 10 to 50
